# Biological target: T1, human Oxytocin-1 (hOT) receptor (Homo sapiens, UniProt P30559)
# T1 construct: expressed in transfected cells
# T1 sequence (P30559 1-389): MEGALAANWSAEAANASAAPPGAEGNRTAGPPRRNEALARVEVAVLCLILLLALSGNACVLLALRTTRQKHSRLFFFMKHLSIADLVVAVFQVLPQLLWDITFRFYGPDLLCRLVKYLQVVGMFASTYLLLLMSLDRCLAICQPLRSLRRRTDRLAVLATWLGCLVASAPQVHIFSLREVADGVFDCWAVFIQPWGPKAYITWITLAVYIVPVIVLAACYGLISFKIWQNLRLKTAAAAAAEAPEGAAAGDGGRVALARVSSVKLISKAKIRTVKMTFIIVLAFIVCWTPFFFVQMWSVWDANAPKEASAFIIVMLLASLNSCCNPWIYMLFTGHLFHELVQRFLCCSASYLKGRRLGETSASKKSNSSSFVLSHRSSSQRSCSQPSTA
# Assay: Determination of antagonist affinity at human Oxytocin-1 receptors using FLIPR (Assay 1)
# Format: cell-based
# Details: CHO-hOT cells, [Ca2+]i response to oxytocin (EC80); mean, n>=3; read-out: hOT FLIPR fpKi mean
# Method: Determination of Antagonist Affinity at Human Oxytocin-1 Receptors Using FLIPR
# Adherent Chinese Hamster Ovary (CHO) cells, stably expressing the recombinant human Oxytocin-1 (hOT) receptor, were maintained in culture in DMEM:F12 medium (Sigma, cat no D6421), supplemented with 10% heat inactivated foetal calf serum (Gibco/Invitrogen, cat. no. 01000-147), 2 mM L-glutamine (Gibco/Invitrogen, cat. no. 25030-024) and 0.2 mg/ml G418 (Gibco/Invitrogen, cat no. 10131-027). Cells were grown as monolayers under 95%:5% air:CO2 at 37° C. and passaged every 3-4 days using TrypLE™ Express (Gibco/Invitrogen, cat no. 12604-013).
# Measurement of [Ca^2+]i Using the FLIPR™
# CHO-hOT cells were seeded into black walled clear-base 384-well plates (Nunc) at a density of 10,000 cells per well in culture medium as described above and maintained overnight (95%:5% air:CO2 at 37° C.). After removal of culture medium, cells were incubated for 1 h at 37° C. in Tyrode's medium (NaCl, 145 mM; KCl, 2.5 mM; HEPES, 10 mM; Glucose, 10 mM; MgCl2, 1.2 mM; CaCl2, 1.5 mM) containing probenacid (0.7 mg/ml), the cytoplasmic calcium indicator, Fluo-4 (4 uM; Teflabs, USA) and the quenching agent Brilliant Black (250 uM; Molecular Devices, UK). Cells were then incubated for an additional 30 min at 37° C. with either buffer alone or buffer containing OT antagonist, before being placed into a FLIPR™ (Molecular Devices, UK) to monitor cell fluorescence (λex=488 nm, λEM=540 nm) before and after the addition of a submaximal concentration of oxytocin (EC80).
# Functional responses using FLIPR were analysed using Activity Base Version 5.0.10. Data are reported as mean values, wherein number of times tested (n) is greater than or equal to 3.
row,Compound,Ki [nM]
1,"CCC(CC)[C@@H]1C(=O)N[C@H](C2Cc3ccccc3C2)C(=O)N1[C@@H](C(=O)N(C)C)c1ccc(C)nc1C [Example 4, (2R)-2-[(3R,6R)-3-(2,3-Dihydro-1H-inden-2-yl)-6-(1-ethylpropyl)-2,5-dioxo-1-piperazinyl]-2-(2,6-dimethyl-3-pyridinyl)-N,N-dimethylethanamide]",0.501 to 1.58
2,"CCC(CC)[C@@H]1C(=O)N[C@H](C2Cc3ccccc3C2)C(=O)N1[C@@H](C(=O)N1CCOCC1)c1ccc2c(cnn2C)c1 [Example 8, (3R,6R)-3-(2,3-Dihydro-1H-inden-2-yl)-6-(1-ethylpropyl)-1-[(1R)-1-(1-methyl-1H-indazol-5-yl)-2-(4-morpholinyl)-2-oxoethyl]-2,5-piperazinedione]",≤ 0.398
3,"CCC(CC)[C@@H]1C(=O)N[C@H](C2Cc3ccccc3C2)C(=O)N1[C@@H](C(=O)NC)c1ccc(C)nc1 [Example 1, (2R)-2-[(3R,6R)-3-(2,3-Dihydro-1H-inden-2-yl)-6-(1-ethylpropyl)-2,5-dioxo-1-piperazinyl]-N-methyl-2-(6-methyl-3-pyridinyl)ethanamide]",2 to 6.31
4,"Cc1nc([C@H](C(=O)N2CCOCC2)N2C(=O)[C@@H](C3Cc4ccccc4C3)NC(=O)[C@H]2CC(C)C)co1 [Comparator Y, (3R,6R)-3-(2,3-dihydro-1H-inden-2-yl)-1-[(1R)-1-(2-methyl-1,3-oxazol-4-yl)-2-(4-morpholinyl)-2-oxoethyl]-6-(2-methylpropyl)-2,5-piperazinedione, reference compound]",31.6 to 100
5,"CCC(CC)[C@@H]1C(=O)N[C@H](C2Cc3ccccc3C2)C(=O)N1[C@@H](C(=O)N1CCOCC1)c1ccc(C)nc1C [Example 5, (3R,6R)-3-(2,3-Dihydro-1H-inden-2-yl)-1-[(1R)-1-(2,6-dimethyl-3-pyridinyl)-2-(4-morpholinyl)-2-oxoethyl]-6-(1-ethylpropyl)-2,5-piperazinedione]",≤ 0.398
6,"CCC(CC)[C@@H]1C(=O)N[C@H](C2Cc3ccccc3C2)C(=O)N1[C@@H](C(=O)NC)c1ccc2c(cnn2C)c1 [Example 6, (2R)-2-[(3R,6R)-3-(2,3-Dihydro-1H-inden-2-yl)-6-(1-ethylpropyl)-2,5-dioxo-1-piperazinyl]-N-methyl-2-(1-methyl-1H-indazol-5-yl)acetamide]",≤ 0.398
7,"CCC(CC)[C@@H]1C(=O)N[C@H](C2Cc3ccccc3C2)C(=O)N1[C@@H](C(=O)N(C)C)c1ccc2c(cnn2C)c1 [Example 7, (2R)-2-[(3R,6R)-3-(2,3-Dihydro-1H-inden-2-yl)-6-(1-ethylpropyl)-2,5-dioxo-1-piperazinyl]-N,N-dimethyl-2-(1-methyl-1H-indazol-5-yl)ethanamide]",≤ 0.398
8,"CCC(CC)[C@@H]1C(=O)N[C@H](C2Cc3ccccc3C2)C(=O)N1[C@@H](C(=O)N1CCOCC1)c1coc(C)n1 [Example 9, (3R,6R)-3-(2,3-Dihydro-1H-inden-2-yl)-6-(1-ethylpropyl)-1-[(1R)-1-(2-methyl-1,3-oxazol-4-yl)-2-(4-morpholinyl)-2-oxoethyl]-2,5-piperazinedione]",0.501 to 1.58
9,"CCC(CC)[C@@H]1C(=O)N[C@H](C2Cc3ccccc3C2)C(=O)N1[C@@H](C(=O)NC)c1ccc(C)nc1C [Example 3, (2R)-2-[(3R,6R)-3-(2,3-Dihydro-1H-inden-2-yl)-6-(1-ethylpropyl)-2,5-dioxo-1-piperazinyl]-2-(2,6-dimethyl-3-pyridinyl)-N-methylethanamide]",0.501 to 1.58
10,"CCC(CC)[C@@H]1C(=O)N[C@H](C2Cc3ccccc3C2)C(=O)N1[C@@H](C(=O)N(C)C)c1ccc(C)nc1 [Example 2, (2R)-2-[(3R,6R)-3-(2,3-Dihydro-1H-inden-2-yl)-6-(1-ethylpropyl)-2,5-dioxo-1-piperazinyl]-N,N-dimethyl-2-(6-methyl-3-pyridinyl)ethanamide]",0.501 to 1.58
11,"Cc1ccc([C@H](C(=O)N(C)C)N2C(=O)[C@@H](C3Cc4ccccc4C3)NC(=O)[C@H]2CC(C)C)cn1 [Comparator X, (2R)-2-[(3R,6R)-3-(2,3-dihydro-1H-inden-2-yl)-6-isobutyl-2,5-dioxopiperazin-1-yl]-N,N-dimethyl-2-(6-methylpyridin-3-yl)ethanamide, reference compound]",7.94 to 25.1

# — patent US20070185162A1, “Substituted diketopiperazines as oxytocin receptor antagonists” (Koninklijke Philips Electronics, N.V., priority 2004, published 2007)
